Experimental data: patent publication US20240101531A1, “PYRIDINAMINE DERIVATIVES AND THEIR USE AS POTASSIUM CHANNEL MODULATORS” (Xenon Pharmaceuticals Inc., priority 2022, published 2024)
Structures can show the parent of a compound that is named as a salt.

Molecular target: human KV7.2/KV7.3 (Homo sapiens (Human), UniProt O43525+O43526)
Assay: Potassium flux assay (IPG-2 AM dye)
Type: cell-based
Conditions: TREX HEK 293 or HEK 293 cells expressing human KV7.2/KV7.3; arithmetic mean values
Description: This potassium flux assay employs the cell-permeable, potassium-sensitive dye, IPG-2 AM, to quantify potassium ion flux through potassium channels.
In general, TREX HEK 293 or HEK 293 cells were stably transfected with either an inducible or non-inducible expression vector containing the full-length cDNA coding for the desired human KV7.2/KV7.3 or in combination with another full-length cDNA for a second desired human KV7 potassium channel. Potassium channel-expressing cell lines were induced with tetracycline (1 μg/mL), if required, and plated on 384-well poly-D-lysine (PDL)-coated plates in culture media (DMEM, containing 10% FBS and 1% L-glutamine). After overnight incubation, culture media was removed and cells were loaded with 5 μM IPG-2 AM dye for 1 hour in Assay buffer (140 mM NaCl, 20 mM RbCl, 2 mM CaCl2, 1 mM MgCl2, 10 mM HEPES (4-(2-hydroxyethyl)-1-piperazineethanesulfonic acid buffer), 10 mM glucose, adjusted with Tris to pH 7.4). Excess dye was removed, and cells incubated at room temperature for 20 minutes with or without test compound. A Hamamatsu FDSS μCell was used to perform a 1:1 addition of K challenge buffer (150 mM NaCl, 10 mM HEPES, 2 mM CaCl2, 10 mM KCl, 1 mM MgCl2, 10 mM glucose, adjusted with Tris to pH 7.4 for human KV7.2/KV7.3, and simultaneously read plates at excitation wavelength of 530 nm and emission wavelength of 558 nm. Non-potassium channel-mediated potassium influx was determined in the presence of DMSO, and maximal influx was determined in the presence of a known KV7.x channel modulator. For each test compound, a concentration response curve was generated with 16 concentrations points, 2-fold serial dilution starting at 30 μM and an EC50 value was determined.

With `O[C@@H]1CCC[C@H](Oc2ccc3c(Nc4ccc(Cl)nc4)nccc3c2)C1` (racemic) [Example 95, rac-(1R,3S)-3-((1-((6-chloropyridin-3-yl)amino)isoquinolin-6-yl)oxy)cyclohexan-1-ol] as the compound, how does the EC50 read?
Its EC50 is less than 1 µM.

For `FC1(F)CCCC(Oc2ccc3c(Nc4ccc(Cl)nc4)nccc3c2)C1` (stereo not shown) [Example 83, N-(6-chloropyridin-3-yl)-6-((3,3-difluorocyclohexyl)oxy)isoquinolin-1-amine], which EC50 is on record?
Its EC50 is 1 to 10 µM.

Which EC50 does the source give for `CS(=O)(=Nc1ccc2c(Nc3ccc(Cl)nc3)nccc2c1)C1COC1` (stereo in doubt) [Example 276, (S)-((1-((6-chloropyridin-3-yl)amino)isoquinolin-6-yl)imino)(methyl)(oxetan-3-yl)-λ^6-sulfanone)] here?
The EC50 was 1 to 10 µM.

With `COc1ncc(Nc2nccc3cc(OCC4CC4)ccc23)cn1` [Example 372, 6-(cyclopropylmethoxy)-N-(2-methoxypyrimidin-5-yl)isoquinolin-1-amine] as the compound, how does the EC50 read?
Its EC50 is 1 to 10 µM.

Which EC50 does the source give for `CO[C@H](C)c1ccc2c(Nc3ccc(Cl)nc3)nccc2c1` [Example 132, (R)-N-(6-chloropyridin-3-yl)-6-(1-methoxyethyl)isoquinolin-1-amine] here?
The EC50 was 10 to 30 µM.

With `FC1(COc2ccc3c(Nc4cncnc4)nccc3c2)CC1` [Example 49, 6-((1-fluorocyclopropyl)methoxy)-N-(pyrimidin-5-yl)isoquinolin-1-amine] as the compound, how does the EC50 read?
Its EC50 is 1 to 10 µM.

`FC1(COc2ccc3c(Nc4ccc(Cl)nc4)nccc3c2)CCOCC1` [Example 239, N-(6-chloropyridin-3-yl)-6-((4-fluorotetrahydro-2H-pyran-4-yl)methoxy)isoquinolin-1-amine] was tested. Which EC50 did it give?
The EC50 was less than 1 µM.

For `Cc1ccc(Nc2nccc3cc(OCc4c[nH]nc4C)ccc23)cn1` [Example 427, 6-((3-methyl-1H-pyrazol-4-yl)methoxy)-N-(6-methylpyridin-3-yl)isoquinolin-1-amine formate], which EC50 is on record?
The EC50 was less than 1 µM.

Which EC50 does the source give for `Clc1ccc(Nc2nccc3cc(O[C@@H]4CCC5(COC5)C4)ccc23)cn1` [Example 138, (R)-6-((2-oxaspiro[3.4]octan-6-yl)oxy)-N-(6-chloropyridin-3-yl)isoquinolin-1-amine] here?
Its EC50 is less than 1 µM.

With `O[C@]1(C(F)(F)F)CCC[C@H](Oc2ccc3c(Nc4cnc(Cl)nc4)nccc3c2)C1` (racemic) [Example 145, rac-(1R,3S)-3-((1-((2-chloropyrimidin-5-yl)amino)isoquinolin-6-yl)oxy)-1-(trifluoromethyl)cyclohexan-1-ol] as the compound, how does the EC50 read?
The EC50 was less than 1 µM.

With `Clc1ccc(Nc2nccc3cc(OCc4ccncc4)ccc23)cn1` [Example 192, N-(6-chloropyridin-3-yl)-6-(pyridin-4-ylmethoxy)isoquinolin-1-amine] as the compound, how does the EC50 read?
The EC50 was less than 1 µM.

Which EC50 does the source give for `FC(F)c1ccc(Nc2nccc3cc(OCC4(F)CC4)ccc23)cn1` [Example 43, N-(6-(difluoromethyl)pyridin-3-yl)-6-((1-fluorocyclopropyl)methoxy)isoquinolin-1-amine] here?
The EC50 was no less than 30 µM.

How did the EC50 turn out when `CO[C@@H](C)c1ccc2c(Nc3ccc(Cl)nc3)nccc2c1` [Example 133, (S)-N-(6-chloropyridin-3-yl)-6-(1-methoxyethyl)isoquinolin-1-amine] was run?
The EC50 was 10 to 30 µM.

With `N#CC1(COc2ccc3c(Nc4cnc(Cl)nc4)nccc3c2)CC1` [Example 207, 1-(((1-((2-chloropyrimidin-5-yl)amino)isoquinolin-6-yl)oxy)methyl)cyclopropane-1-carbonitrile] as the compound, how does the EC50 read?
Its EC50 is less than 1 µM.

Which EC50 does the source give for `COc1cc(Nc2nccc3cc(OCC4(C)COC4)ccc23)cnc1C` [Example 187, N-(5-methoxy-6-methylpyridin-3-yl)-6-((3-methyloxetan-3-yl)methoxy)isoquinolin-1-amine formate] here?
The EC50 was less than 1 µM.

`FC1(F)CC1COc1ccc2c(Nc3ccc(Cl)nc3)nccc2c1` (stereo not shown) [Example 404, N-(6-chloropyridin-3-yl)-6-((2,2-difluorocyclopropyl)methoxy)isoquinolin-1-amine] was tested. Which EC50 did it give?
Its EC50 is less than 1 µM.

How did the EC50 turn out when `CC(=O)N[C@H]1CCC[C@@H](Oc2ccc3c(Nc4cnc(Cl)nc4)nccc3c2)C1` [Example 378, N-((1 S,3R)-3-((1-((2-chloropyrimidin-5-yl)amino)isoquinolin-6-yl)oxy)cyclohexyl)acetamide] was run?
Its EC50 is less than 1 µM.

With `COC1(COc2ccc3c(Nc4cnc(C)nc4)nccc3c2)CC1` [Example 178, 6-((1-methoxycyclopropyl)methoxy)-N-(2-methylpyrimidin-5-yl)isoquinolin-1-amine] as the compound, how does the EC50 read?
Its EC50 is 1 to 10 µM.

`N#CC1(COc2ccc3c(Nc4ccc(Cl)nc4)nccc3c2)CC(F)(F)C1` [Example 234, 1-(((1-((6-chloropyridin-3-yl)amino)isoquinolin-6-yl)oxy)methyl)-3,3-difluorocyclobutane-1-carbonitrile] was tested. Which EC50 did it give?
Its EC50 is less than 1 µM.

Which EC50 does the source give for `C[C@H](COc1ccc2c(Nc3ccc(Cl)nc3)nccc2c1)c1cnn(C)c1` [Example 160, (S)—N-(6-chloropyridin-3-yl)-6-(2-(1-methyl-1H-pyrazol-4-yl)propoxy)isoquinolin-1-amine] here?
Its EC50 is 1 to 10 µM.

With `OC(COc1ccc2c(Nc3ccc(Cl)nc3)nccc2c1)C(F)(F)F` (stereo not shown) [Example 240, 3-((1-((6-chloropyridin-3-yl)amino)isoquinolin-6-yl)oxy)-1,1,1-trifluoropropan-2-ol] as the compound, how does the EC50 read?
The EC50 was 1 to 10 µM.

For `Clc1ccc(Nc2nccc3cc(OCC4COCCO4)ccc23)cn1` (stereo not shown) [Example 154, 6-((1,4-dioxan-2-yl)methoxy)-N-(6-chloropyridin-3-yl)isoquinolin-1-amine], which EC50 is on record?
Its EC50 is less than 1 µM.

`Clc1ccc(Nc2nccc3cc(OCc4cnn(C5CC5)c4)ccc23)cn1` [Example 289, N-(6-chloropyridin-3-yl)-6-((1-cyclopropyl-1H-pyrazol-4-yl)methoxy)isoquinolin-1-amine] was tested. Which EC50 did it give?
The EC50 was 1 to 10 µM.

With `Clc1ncc(Nc2nccc3cc(OCc4ccncc4)ccc23)cn1` [Example 202, N-(2-chloropyrimidin-5-yl)-6-(pyridin-4-ylmethoxy)isoquinolin-1-amine] as the compound, how does the EC50 read?
Its EC50 is less than 1 µM.

With `CC(C)C1(COc2ccc3c(Nc4cnc(Cl)nc4)nccc3c2)COC1` [Example 41, N-(2-chloropyrimidin-5-yl)-6-((3-isopropyloxetan-3-yl)methoxy)isoquinolin-1-amine] as the compound, how does the EC50 read?
The EC50 was less than 1 µM.

With `O=c1cc[nH]n1CCOc1ccc2c(Nc3ccc(Cl)nc3)nccc2c1` [Example 75, 2-(2-((1-((6-chloropyridin-3-yl)amino)isoquinolin-6-yl)oxy)ethyl)-1,2-dihydro-3H-pyrazol-3-one] as the compound, how does the EC50 read?
Its EC50 is 1 to 10 µM.

Which EC50 does the source give for `CC(Oc1ccc2c(Nc3cnc(Cl)nc3)nccc2c1)C1(C#N)CC1` (stereo not shown) [Example 385, 1-(1-((1-((2-chloropyrimidin-5-yl)amino)isoquinolin-6-yl)oxy)ethyl)cyclopropane-1-carbonitrile] here?
The EC50 was less than 1 µM.

For `Fc1c(OCC2CC2)ccc2c(Nc3ccc(Cl)nc3)nccc12` [Example 229, N-(6-chloropyridin-3-yl)-6-(cyclopropylmethoxy)-5-fluoroisoquinolin-1-amine], which EC50 is on record?
The EC50 was 1 to 10 µM.

With `Clc1ncc(Nc2nccc3cc(OCC4COC4)ccc23)cn1` [Example 213, N-(2-chloropyrimidin-5-yl)-6-(oxetan-3-ylmethoxy)isoquinolin-1-amine] as the compound, how does the EC50 read?
Its EC50 is less than 1 µM.

For `CC(=O)N[C@@H]1CCC[C@H](Oc2ccc3c(Nc4cnc(Cl)nc4)nccc3c2)C1` [Example 376, N-((1R,3S)-3-((1-((2-chloropyrimidin-5-yl)amino)isoquinolin-6-yl)oxy)cyclohexyl)acetamide], which EC50 is on record?
The EC50 was less than 1 µM.

Which EC50 does the source give for `COC1(COc2ccc3c(Nc4ccc(Cl)nc4)nccc3c2)CC1` [Example 177, N-(6-chloropyridin-3-yl)-6-((1-methoxycyclopropyl)methoxy)isoquinolin-1-amine] here?
Its EC50 is less than 1 µM.

With `Clc1ccc(Nc2nccc3cc(OCC4CCCO4)ccc23)cn1` (stereo not shown) [Example 217, N-(6-chloropyridin-3-yl)-6-((tetrahydrofuran-2-yl)methoxy)isoquinolin-1-amine] as the compound, how does the EC50 read?
The EC50 was 1 to 10 µM.

For `Cn1cc(COc2cnc3c(Nc4cnc(Cl)nc4)nccc3c2)cn1` [Example 253, N-(2-chloropyrimidin-5-yl)-3-((1-methyl-1H-pyrazol-4-yl)methoxy)-1,7-naphthyridin-8-amine], which EC50 is on record?
The EC50 was less than 1 µM.

With `Clc1ccc(Nc2nccc3cc(O[C@@H]4CCCN(Cc5ccccc5)C4)ccc23)cn1` [Example 108, (R)-6-((1-benzylpiperidin-3-yl)oxy)-N-(6-chloropyridin-3-yl)isoquinolin-1-amine] as the compound, how does the EC50 read?
The EC50 was 1 to 10 µM.

Which EC50 does the source give for `COc1cnc(Nc2ccc(Cl)nc2)c2[nH]ccc12` [Example 15, N-(6-chloropyridin-3-yl)-4-methoxy-1H-pyrrolo[2,3-c]pyridin-7-amine formate] here?
Its EC50 is 1 to 10 µM.

Which EC50 does the source give for `Cc1ncc(Nc2nccc3cc(OCc4cnn(C)c4C)ccc23)cn1` [Example 353, 6-((1,5-dimethyl-1H-pyrazol-4-yl)methoxy)-N-(2-methylpyrimidin-5-yl)isoquinolin-1-amine] here?
The EC50 was less than 1 µM.

For `CC(=O)N1CCC(Oc2ccc3c(Nc4ccc(Cl)nc4)nccc3c2)CC1` [Example 312, 1-(4-((1-((6-chloropyridin-3-yl)amino)isoquinolin-6-yl)oxy)piperidin-1-yl)ethan-1-one], which EC50 is on record?
The EC50 was 1 to 10 µM.
